Values of other authors in article PMC4460250, “Systems Pharmacology Dissecting Holistic Medicine for Treatment of Complex Diseases: An Example Using Cardiocerebrovascular Diseases Treated by TCM” (Evidence-based Complementary and Alternative Medicine : eCAM, 2015).

details: human; PreHIA data set, value given as fraction; cited from earlier work

Structure (SMILES) | HIA(Human Intestinal Absorption)
CC#C[C@]1(O)CC[C@H]2[C@@H]3CCC4=CC(=O)CCC4=C3[C@@H](c3ccc(N(C)C)cc3)C[C@@]21C [Mifepristone] | 0.9

same assay, conditions: in vivo; cited from earlier work

Structure (SMILES) | HIA(Human Intestinal Absorption)
CC(C)COCC(CN(Cc1ccccc1)c1ccccc1)N1CCCC1 (stereo not drawn) [Bepridil] | 1
Cc1cnc(NC(=O)C2=C(O)c3ccccc3S(=O)(=O)N2C)s1 [Meloxicam] | 0.9
Cc1cccc(Nc2ccccc2C(=O)O)c1C [Mefenamic_acid] | 0.9
C[n+]1ccccc1/C=N/O [Pralidoxime] | 0.3
C[C@@H](O)[C@H]1C(=O)N2C(C(=O)O)=C(SCCN=CN)C[C@H]12 [Imipenem] | 0.05
C#C[C@]1(O)C=C[C@H]2[C@@H]3CCC4=CC(=O)CC[C@@H]4[C@H]3CC[C@@]21CC [Gestodene] | 1
CC(C)N(CCC(C(N)=O)(c1ccccc1)c1ccccn1)C(C)C (stereo not drawn) [Disopyramide] | 0.95
CC(C)(C)NC(=O)[C@H]1CC[C@H]2[C@@H]3CC[C@H]4NC(=O)C=C[C@]4(C)[C@H]3CC[C@]12C [Finasteride] | 1
C#C[C@]1(O)CC[C@H]2[C@@H]3[C@H](C)CC4=C(CCC(=O)C4)[C@H]3CC[C@@]21C [Tibolone] | 0.9
CC(CCc1ccccc1)NCC(O)c1ccc(O)c(C(N)=O)c1 (stereo not drawn) [Labetalol] | 0.95
Nc1nc(O)c2ncn(COC(CO)CO)c2n1 [Ganciclovir] | 0.038
CN1C(C(=O)Nc2ccccn2)=C(O)c2ccccc2S1(=O)=O [Piroxicam] | 1
O=C1CN(/N=C/c2ccc([N+](=O)[O-])o2)C(=O)N1 [Nitrofurantoin] | 0.95
Nc1cc(-c2ccncc2)c[nH]c1=O [Amrinone] | 0.93
COc1ccc2[nH]c([S+]([O-])Cc3ncc(C)c(OC)c3C)nc2c1 (stereo not drawn) [Omeprazole] | 0.8
CO[C@@]1(NC(=O)CSCC#N)C(=O)N2C(C(=O)O)=C(CSc3nnnn3C)CS[C@@H]21 [Cefmetazole] | 0.1
Clc1cccc(Cl)c1N=C1NCCN1 [Clonidine] | 0.95
O=C1C(CC[S+]([O-])c2ccccc2)C(=O)N(c2ccccc2)N1c1ccccc1 (stereo not drawn) [Sulfinpyrazone] | 1
C[N+](C)(CCOc1ccccc1)Cc1ccccc1 [Bephenium] | 0.05
COc1nc(C)nc(Cl)c1N=C1NCCN1 [Moxonidine] | 0.88
CC(=O)N[C@H]1[C@H]([C@H](O)[C@H](O)CO)OC(C(=O)O)=C[C@@H]1N=C(N)N [Zanamivir] | 0.02
C[C@H]1C[C@@H]2[C@H]([C@@H](O)C[C@@]3(C)[C@H]2CC[C@]3(O)C(=O)CO)[C@@]2(C)C=CC(=O)C=C12 [Methylprednisolone] | 0.82
NCC[C@H](O)C(=O)N[C@@H]1C[C@H](N)[C@@H](O[C@H]2O[C@H](CN)CC[C@H]2N)[C@H](O)[C@H]1O[C@H]1O[C@H](CO)[C@@H](O)[C@H](N)[C@H]1O [Arbekacin] | 0.01
CC(C)(Oc1ccc(CCNC(=O)c2ccc(Cl)cc2)cc1)C(=O)O [Bezafibrate] | 1
Cc1cc(CC(=O)O)n(C)c1C(=O)c1ccc(Cl)cc1 [Zomepirac] | 1
CCCC1O[C@@H]2C[C@H]3[C@@H]4CCC5=CC(=O)C=C[C@]5(C)[C@H]4[C@@H](O)C[C@]3(C)[C@]2(C(=O)CO)O1 (stereo partly drawn) [Budesonide] | 1

Structure (SMILES) | HIA(Human Intestinal Absorption)
C[C@@H]1O[C@@H]1P(=O)(O)O [Fosfomycin] | 0.31
CN1CCCC(n2nc(Cc3ccc(Cl)cc3)c3ccccc3c2=O)CC1 (stereo not drawn) [Azelastine] | 1
CNCCC=C1c2ccccc2CCc2ccccc21 [Nortriptyline] | 1
O=C(O)c1ccccc1C(=O)Nc1ccc(S(=O)(=O)Nc2nccs2)cc1 [Phthalylsulfathiazole] | 0.05
CN(C)CCc1c[nH]c2ccc(CS(=O)(=O)N3CCCC3)cc12 [Almotriptan] | 0.75
Nc1c2c(nc3ccccc13)CCCC2 [Tacrine] | 0.95
COc1cccc2c1C(=O)c1c(O)c3c(c(O)c1C2=O)C[C@@](O)(C(=O)CO)C[C@@H]3O[C@H]1C[C@H](N)[C@H](O)[C@H](C)O1 [Doxorubicin] | 0.12
Cc1ccc(NC(=O)c2ccc(CN3CCN(C)CC3)cc2)cc1Nc1nccc(-c2cccnc2)n1 [Imatinib] | 0.98
CN(C)CCCOc1nn(Cc2ccccc2)c2ccccc12 [Benzydamine] | 0.87
CCC[C@H](N[C@@H](C)C(=O)N1[C@H](C(=O)O)C[C@@H]2CCCC[C@@H]21)C(=O)OCC [Perindopril] | 0.95
Clc1ccccc1CN1CCc2sccc2C1 [Ticlopidine] | 0.8
O=C(O)Cc1ccc2c(c1)C(=O)c1ccccc1CO2 [Isoxepac] | 0.98
NC(=O)c1ncn([C@@H]2O[C@H](CO)[C@@H](O)[C@H]2O)n1 [Ribavirin] | 0.33
O=C1CN(/N=C/c2ccc(-c3ccc([N+](=O)[O-])cc3)o2)C(O)=N1 [Dantrolene] | 0.8
COc1ccccc1N1CCN(CCCNc2cc(=O)n(C)c(=O)n2C)CC1 [Urapidil] | 0.78
NNC(=O)c1ccncc1 [Isoniazid] | 0.8
O=C1OC2(c3ccc(O)cc3Oc3cc(O)ccc32)c2ccccc21 [Fluorescein] | 0.99
CCCCCOC(=O)Nc1nc(=O)n([C@@H]2O[C@H](C)[C@@H](O)[C@H]2O)cc1F [Capecitabine] | 0.96
CNCCC(Oc1ccc(C(F)(F)F)cc1)c1ccccc1 (stereo not drawn) [Fluoxetine] | 0.8
O=C1c2ccccc2C(=O)C1c1ccccc1 [Phenindione] | 1
CN(C)[C@@H]1C(O)=C(C(N)=O)C(=O)[C@@]2(O)C(O)=C3C(=O)c4c(O)cccc4[C@@](C)(O)[C@H]3[C@H](O)[C@@H]12 [Oxytetracycline] | 0.58
CC1=C(/C=C/C(C)=C/C=C/C(C)=C/CO)C(C)(C)CCC1 [Vitamin_A] | 0.8
CC(=O)OCC(CCn1cnc2cnc(N)nc21)COC(C)=O [Famciclovir] | 0.77
O=C(Oc1ccccc1C(=O)O)c1ccccc1O [Salsalate] | 1
C=CCNc1nc(NCC=C)nc(N2CCN(C(c3ccc(F)cc3)c3ccc(F)cc3)CC2)n1 [Almitrine] | 0.9
CC(C)(C(=O)c1cccnc1)c1cccnc1 [Metyrapone] | 0.8

Structure (SMILES) | HIA(Human Intestinal Absorption)
N=C(N)N/N=C/c1c(Cl)cccc1Cl [Guanabenz] | 0.8
C[C@](N)(Cc1ccc(O)c(O)c1)C(=O)O [Methyldopa] | 0.41
COc1cc2nc(N3CCN(C(=O)c4ccco4)CC3)nc(N)c2cc1OC [Prazosin] | 0.86
NCC[C@H](O)C(=O)N[C@@H]1C[C@H](N)[C@@H](O[C@H]2O[C@H](CN)[C@@H](O)[C@H](O)[C@H]2O)[C@H](O)[C@H]1O[C@H]1O[C@H](CO)[C@@H](O)[C@H](N)[C@H]1O [Amikacin] | 0.01
NC[C@H]1CC[C@H](C(=O)O)CC1 [Tranexamic_acid] | 0.55
Cc1ccc(C)c(OCCCC(C)(C)C(=O)O)c1 [Gemfibrozil] | 1
CC(C[N+](C)(C)C)OC(N)=O (stereo not drawn) [Bethanechol] | 0.05
CC1=C(C(=O)O)N2C(=O)[C@@H](NC(=O)[C@H](N)C3=CCC=CC3)[C@H]2SC1 [Cephradine] | 0.95
CC1=C(CC(=O)O)c2cc(F)ccc2/C1=C\c1ccc([S+](C)[O-])cc1 (stereo not drawn) [Sulindac] | 0.9
CC(C)C(=O)Nc1ccc([N+](=O)[O-])c(C(F)(F)F)c1 [Flutamide] | 0.9
Cc1cccc(C)c1NC(=O)NCCCNC(C)C [Recainam] | 0.71
O=P(O)(O)C(Cl)(Cl)P(=O)(O)O [Clodronate] | 0.03
CC[C@H]1OC(=O)[C@H](C)[C@@H](O[C@H]2C[C@@](C)(OC)[C@@H](O)[C@H](C)O2)[C@H](C)[C@@H](O[C@@H]2O[C@H](C)C[C@H](N(C)C)[C@H]2O)[C@](C)(O)C[C@@H](C)C(=O)[C@H](C)[C@@H](O)[C@]1(C)O [Erythromycin] | 0.35
CC1(C)S[C@@H]2[C@H](NC(=O)[C@H](NC(=O)N3CCN(S(C)(=O)=O)C3=O)c3ccccc3)C(=O)N2[C@H]1C(=O)O [Mezlocillin] | 0.01
CCc1oc2ccccc2c1C(=O)c1cc(Br)c(O)c(Br)c1 [Benzbromarone] | 0.73
[H]/N=C(\N/C(=N/[H])Nc1ccc(Cl)cc1)NC(C)C [Proguanil] | 0.8
CC(=O)Nc1c(I)c(NC(C)=O)c(I)c(C(=O)O)c1I [Diatrizoate] | 0.05
O=C(O)CCc1nc(-c2ccccc2)c(-c2ccccc2)o1 [Oxaprozin] | 0.98
CCOc1ccccc1OCCN[C@H](C)Cc1ccc(OC)c(S(N)(=O)=O)c1 [Tamsulosin] | 1
Cc1ccc(S(=O)(=O)NC(=O)N[C@H]2[C@H]3CC[C@@](C)([C@H]2O)C3(C)C)cc1 [Glibornuride] | 0.98
COc1ccc([C@]2(C#N)CC[C@@H](C(=O)O)CC2)cc1OC1CCCC1 [Cilomilast] | 1
CN(C)CC/C=C1\c2ccccc2CSc2ccccc21 [Dothiepin] | 0.95
CN(C)CCOc1ccc(/C(=C(/CCCl)c2ccccc2)c2ccccc2)cc1 [Toremifene] | 1
Nc1ccn([C@H]2CC[C@@H](CO)O2)c(=O)n1 [Zalcitabine] | 0.85
CC[C@@H](CO)NC(=O)[C@@H]1C=C2c3cccc4[nH]cc(c34)C[C@H]2N(C)C1 [Methylergonovine] | 1
